# US20240148821A1, “PHARMACEUTICAL USE OF CYCLIC PEPTIDE COMPOUND” (CHUGAI SEIYAKU KABUSHIKI KAISHA, priority 2021, published 2024)
# Numbered stars: 1 amine (or outer) side, 2 acyl side, 3 side chain; on linkers, the order of the positions; unused ones are H or OH. Bridge positions count the residues as written; N and C are the ends. Square brackets hold non-standard residues; d marks the D form. Peptide text beside a SMILES is read from it. * marks the point of attachment. hPhe(3-Cl-4-CF3) = N[C@@H](CCc1ccc(C(F)(F)F)c(Cl)c1)C(=O)O; X112 = O=C([C@H](CCOc1ccc(C(F)(F)F)cc1)N[*:1])[*:2]; hPhe(4-CF3) = N[C@@H](CCc1ccc(C(F)(F)F)cc1)C(=O)O; NMePhe(4-Cl) = CN[C@@H](Cc1ccc(Cl)cc1)C(=O)O; NMeNle(6-CHF2) = CN[C@@H](CCCCC(F)F)C(=O)O; NMedβ3hAla = C[C@H](CC(=O)[*:2])N(C)[*:1]; NMeAla(cPent) = CN[C@@H](CC1CCCC1)C(=O)O; NMeNva(5,5-F2) = CN[C@@H](CCC(F)F)C(=O)O; NMeGly(cPent) = CN[C@H](C(=O)O)C1CCCC1; Phe(3-I) = N[C@@H](Cc1cccc(I)c1)C(=O)O; X26 = CC(C)=CC[C@H](N[*:1])C(=O)[*:2]; NMeCha = CN[C@@H](CC1CCCCC1)C(=O)O; Hyp = O=C(O)[C@@H]1C[C@@H](O)CN1; NMeAhp(2) = CCCCC[C@H](NC)C(=O)O; NMeChg = CN[C@H](C(=O)O)C1CCCCC1; NMeF = CN[C@@H](Cc1ccccc1)C(=O)O; NMeD = CN[C@@H](CC(=O)O)C(=O)O; NMeL = CN[C@@H](CC(C)C)C(=O)O; NMeV = CN[C@H](C(=O)O)C(C)C; d(β3hA) = C[C@@H](N)CC(=O)O; Azetidin(1-yl) = C1CN(*)C1; NMeS = CN[C@@H](CO)C(=O)O; Morpholide = C1CN(*)CCO1; NMeA = CN[C@@H](C)C(=O)O; NMeAib = CNC(C)(C)C(=O)O; Piperidide = C1CCN(*)CC1; Ac5c = NC1(C(=O)O)CCCC1; Aze = O=C(O)[C@@H]1CCN1; CH2CMe2OH = CC(C)(O)C*; Aib = CC(C)(N)C(=O)O; Isopentyl = CC(C)CC*; NEtG = CCNCC(=O)O; Sar = CNCC(=O)O
# Target: protein-protein interaction between Kras and SOS1 (biotin-tagged human Kras loaded with GDP, His-tagged human SOS1) (Homo sapiens (Human), UniProt P01116, G12D)
# Assay: Protein-protein interaction inhibition between Kras and SOS1 (KrasG12D-SOS PPI) using AlphaScreen;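 note: kras produced in E. coli, Ni-coupled donor beads and streptavidin acceptor beads, excitation 680 nm with emission detected at 520–620 nm via singlet oxygen transfer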
# Assay type: biochemical
# Settings: AlphaScreen; biotin-tagged human Kras loaded with GDP, His-tagged human SOS1; read-out: KRAS G12D-SOS PPI IC50
row,SMILES,IC50
1,CC[C@H](C)[C@@H]1NC(=O)[C@H](CC(C)C)N(C)C(=O)C[C@@H](C(=O)N2CCOCC2)N(C)C(=O)[C@H](C2CCCC2)N(C)C(=O)C2(CCCC2)NC(=O)[C@@H]2CCCN2C(=O)[C@H](CCc2ccc(C(F)(F)F)c(Cl)c2)NC(=O)CN(C)C(=O)[C@H](C2CCCC2)N(C)C(=O)[C@@H]2CCN2C(=O)[C@H](C)NC1=O [Compound 1309] ([NMeL]IA[Aze][NMeGly(cPent)][Sar][hPhe(3-Cl-4-CF3)]P[Ac5c][NMeGly(cPent)][NMeD]-Morpholide; lactam N-11),0.85 nM
2,CC[C@H](C)[C@@H]1NC(=O)[C@H](CC(C)C)N(C)C(=O)C[C@@H](C)NC(=O)[C@H](CC(C)C)N(C)C(=O)C(C)(C)NC(=O)[C@H](COCC(C)(C)O)N(C)C(=O)[C@H](CCc2ccc(C(F)(F)F)c(Cl)c2)NC(=O)CN(CC)C(=O)[C@H](COCCC(C)C)N(C)C(=O)CN(C)C(=O)CN(C)C1=O [Compound 1516] (cyclo([Aib][NMeL][d(β3hA)][NMeL]I[Sar][Sar][NMeS](Isopentyl)[NEtG][hPhe(3-Cl-4-CF3)][NMeS](CH2CMe2OH))),340 nM
3,CC[C@H](C)[C@@H]1NC(=O)[C@H](CC(C)C)N(C)C(=O)C[C@@H](C)N(C)C(=O)[C@H](CC(C)C)NC(=O)C(C)(C)N(C)C(=O)[C@H](CC(C)C)NC(=O)[C@H](CCc2ccc(C(F)(F)F)cc2)NC(=O)CN(C)C(=O)[C@H](Cc2ccc(Cl)cc2)N(C)C(=O)CN(C)C(=O)CN(C)C1=O [Compound 315] (cyclo(I[Sar][Sar][NMePhe(4-Cl)][Sar][hPhe(4-CF3)]L[NMeAib]L[NMedβ3hAla][NMeL])),120 nM
4,CC[C@H](C)[C@@H]1NC(=O)[C@H](CC(C)C)N(C)C(=O)C[C@@H](C(=O)N2CCCCC2)N(C)C(=O)[C@H](C2CCCCC2)N(C)C(=O)C2(CCCC2)NC(=O)CN(CC)C(=O)[C@H](CCc2ccc(C(F)(F)F)c(Cl)c2)NC(=O)CN(C)C(=O)[C@H](CC2CCCCC2)N(C)C(=O)CN(C)C(=O)CN(C)C1=O [Compound 160] ([NMeL]I[Sar][Sar][NMeCha][Sar][hPhe(3-Cl-4-CF3)][NEtG][Ac5c][NMeChg][NMeD]-Piperidide; lactam N-11),1 nM
5,CC[C@H](C)[C@@H]1NC(=O)[C@H](CC2CCCC2)N(C)C(=O)C[C@@H](C)NC(=O)[C@H](C(C)C)N(C)C(=O)C2(CCCC2)NC(=O)[C@@H]2CCCN2C(=O)[C@H](CCc2ccc(C(F)(F)F)c(Cl)c2)NC(=O)CN(C)C(=O)[C@H](CC2CCCCC2)N(C)C(=O)[C@@H]2CCN2C(=O)[C@H](C)N(C)C1=O [Compound 8] (cyclo([Ac5c][NMeV][d(β3hA)][NMeAla(cPent)]I[NMeA][Aze][NMeCha][Sar][hPhe(3-Cl-4-CF3)]P)),75 nM
6,CCCCC[C@H]1C(=O)N[C@@H]([C@@H](C)CC)C(=O)N[C@@H](C)C(=O)N2CC[C@H]2C(=O)N(C)[C@@H](CC2CCCCC2)C(=O)N(C)CC(=O)N[C@@H](CCc2ccc(C(F)(F)F)c(Cl)c2)C(=O)N2CCC[C@H]2C(=O)NC2(CCCC2)C(=O)N(C)[C@@H](C2CCCC2)C(=O)N(C)[C@H](C(=O)N2CCC2)CC(=O)N1C [Compound 155] ([NMeAhp(2)]IA[Aze][NMeCha][Sar][hPhe(3-Cl-4-CF3)]P[Ac5c][NMeGly(cPent)][NMeD]-{Azetidin(1-yl)}; lactam N-11),1.6 nM
7,CC[C@H](C)[C@@H]1NC(=O)[C@H](CC(C)C)N(C)C(=O)C[C@@H](C)N(C)C(=O)[C@H](CC(C)C)NC(=O)C(C)(C)N(C)C(=O)[C@H](CC=C(C)C)NC(=O)[C@H](Cc2cccc(I)c2)NC(=O)CN(C)C(=O)[C@H](Cc2ccc(Cl)cc2)N(C)C(=O)CN(C)C(=O)CN(C)C1=O [Compound 1418] (cyclo(I[Sar][Sar][NMePhe(4-Cl)][Sar][Phe(3-I)][X26][NMeAib]L[NMedβ3hAla][NMeL])),110 nM
8,CC[C@H](C)[C@@H]1NC(=O)[C@H](CCCCC(F)F)N(C)C(=O)C[C@@H](C(=O)N2CCCCC2)N(C)C(=O)[C@H](C(C)C)N(C)C(=O)C2(CCCC2)NC(=O)[C@@H]2CCCN2C(=O)[C@H](CCc2ccc(C(F)(F)F)c(Cl)c2)NC(=O)CN(C)C(=O)[C@H](CC2CCCCC2)N(C)C(=O)[C@@H]2CCN2C(=O)[C@H](C)N(C)C1=O [Compound 94] ([NMeNle(6-CHF2)]I[NMeA][Aze][NMeCha][Sar][hPhe(3-Cl-4-CF3)]P[Ac5c][NMeV][NMeD]-Piperidide; lactam N-11),3.3 nM
9,"CC[C@H](C)[C@@H]1NC(=O)[C@H](C)N(C)C(=O)C[C@@H](C(=O)N2CCCCC2)N(C)C(=O)[C@H](C2CCCCC2)N(C)C(=O)C2(CCCC2)NC(=O)[C@@H]2CCCN2C(=O)[C@H](CCOc2ccc(C(F)(F)F)cc2)NC(=O)CN(C)C(=O)[C@H](CC2CCCCC2)N(C)C(=O)CN(C)C(=O)CN(C)C1=O [Compound 2041, (3S,9S,18S,21S,25S,28S,34S)-28-cyclohexyl-9-(cyclohexylmethyl)-7,10,13,16,21,22,26,29-octamethyl-18-[(1S)-1-methylpropyl]-25-(piperidine-1-carbonyl)-3-[2-[4-(trifluoromethyl)phenoxy]ethyl]spiro[1,4,7,10,13,16,19,22,26,29,32-undecazabicyclo[32.3.0]heptatriacontane-31,1′-cyclopentane]-2,5,8,11,14,17,20,23,27,30,33-undecone] ([NMeA]I[Sar][Sar][NMeCha][Sar][X112]P[Ac5c][NMeChg][NMeD]-Piperidide; lactam N-11)",110 nM
10,CCO[C@@H]1C[C@H]2C(=O)NC3(CCCC3)C(=O)N(C)[C@@H](CC(C)C)C(=O)N(C)[C@H](C(=O)N3CCOCC3)CC(=O)N(C)[C@@H](CC(C)C)C(=O)N[C@@H]([C@@H](C)CC)C(=O)N(C)CC(=O)N(C)CC(=O)N(C)[C@@H](CC3CCCCC3)C(=O)N(C)CC(=O)N[C@@H](CCc3ccc(C(F)(F)F)c(Cl)c3)C(=O)N2C1 [Compound 1785] ([NMeL]I[Sar][Sar][NMeCha][Sar][hPhe(3-Cl-4-CF3)][Hyp](Et)[Ac5c][NMeL][NMeD]-Morpholide; lactam N-11),0.45 nM
11,CC[C@H](C)[C@@H]1NC(=O)[C@H](CC2CCCC2)N(C)C(=O)C[C@@H](C(=O)N2CCC2)N(C)C(=O)[C@H](C2CCCC2)N(C)C(=O)C2(CCCC2)NC(=O)[C@@H]2CCCN2C(=O)[C@H](CCc2ccc(C(F)(F)F)c(Cl)c2)NC(=O)CN(C)C(=O)[C@H](CC2CCCCC2)N(C)C(=O)[C@@H]2CCN2C(=O)[C@H](C)NC1=O [Compound 921] ([NMeAla(cPent)]IA[Aze][NMeCha][Sar][hPhe(3-Cl-4-CF3)]P[Ac5c][NMeGly(cPent)][NMeD]-{Azetidin(1-yl)}; lactam N-11),1.1 nM
12,"CC[C@H](C)[C@@H]1NC(=O)[C@H](CC(C)C)N(C)C(=O)C[C@@H](C(=O)N2CCCCC2)N(C)C(=O)[C@H](C2CCCCC2)N(C)C(=O)C2(CCCC2)NC(=O)[C@H](CCC(F)F)N(C)C(=O)[C@H](CCc2ccc(C(F)(F)F)c(Cl)c2)NC(=O)CN(C)C(=O)[C@H](CC2CCCCC2)N(C)C(=O)CN(C)C(=O)CN(C)C1=O [Compound 523] ([NMeL]I[Sar][Sar][NMeCha][Sar][hPhe(3-Cl-4-CF3)][NMeNva(5,5-F2)][Ac5c][NMeChg][NMeD]-Piperidide; lactam N-11)",5.8 nM
13,CC[C@H](C)[C@@H]1NC(=O)[C@H](CC(C)C)N(C)C(=O)C[C@@H](C)NC(=O)[C@H](C(C)C)N(C)C(=O)C2(CCCC2)NC(=O)[C@@H]2CCCN2C(=O)[C@H](CCc2ccc(C(F)(F)F)c(Cl)c2)NC(=O)CN(C)C(=O)[C@H](CC2CCCCC2)N(C)C(=O)[C@@H]2CCN2C(=O)[C@H](Cc2ccccc2)N(C)C1=O [Compound 1628] (cyclo([Ac5c][NMeV][d(β3hA)][NMeL]I[NMeF][Aze][NMeCha][Sar][hPhe(3-Cl-4-CF3)]P)),67 nM
